# According to patent US9133207B2, “Tetrandrine derivatives with substituted 5-carbon, preparation method and use thereof” (Hangzhou Bensheng Pharmaceutical Co., Ltd., priority 2011, dated 2015):
# Assays:
# [1] = system: H9 (acute lymphoblastic leukemia, ALL); experiment: Leukemia cell growth inhibition, MTT, 72 h (Example 5); type: cell-based, human; conditions: Homo sapiens; 72 h, MTT
# Outline: (§1)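 6000 cells per well were seeded in RPMI 1640 with 10% FBS, exposed to graded concentrations of 5-substituted tetrandrine derivatives, and held 72 hours at 37° C, 5% CO2. Viable cell concentration was then measured by MTT.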
# [2] = system: Jurkat (acute lymphoblastic leukemia, ALL); experiment: as above; type: cell-based, human; conditions: for IC50 / IC90: Homo sapiens, Jurkat, 72 h, MTT
# Outline: as §1
# [3] = system: K562/adr (drug-resistant, chronic myeloid leukemia, CML); experiment: as above; type: cell-based, human; conditions: Homo sapiens, K562/Adr; 72 h, MTT
# Outline: as §1
# [4] = system: Kasumi-1 (acute myeloid leukemia M2 type, AML-M2); experiment: as above; type: cell-based, human; conditions: Homo sapiens, Kasumi 1
# Outline: as §1
# [5] = system: NB4 (acute promyelocytic leukemia, AML); experiment: as above; type: cell-based, human; conditions: Homo sapiens; 72 h, MTT
# Outline: as §1
# [6] = system: RPMI8226 (multiple myeloma); experiment: Multiple myeloma cell growth inhibition, MTT, 72 h (Example 6); type: cell-based, human; conditions: Homo sapiens, RPMI-8226; 72 h, MTT, RPMI8226
# Outline: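 RPMI8226 cells (6000 per well) in RPMI 1640 with 10% FBS were exposed to a range of tetrandrine derivative concentrations for 72 h at 37 °C under 5% CO2. Viable cell concentration was then measured by MTT.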
# [7] = system: CaES-17 (esophageal cancer cell); experiment: Solid tumor cell growth inhibition, MTT, 72 h (Example 7); type: cell-based, human; conditions: Homo sapiens, CaEs17; 72 h, MTT, CAES-17
# Outline: (§2)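 Cells (4000/well) were seeded in DMEM high glucose with 10% FBS and grown 24 h at 37 °C, 5% CO2, then exposed to tetrandrine derivatives at different concentrations for 72 h. Viable cells were measured by MTT, with viability expressed as % of untreated control (100%).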
# [8] = system: Hep-2 (laryngeal carcinoma); experiment: as above; type: cell-based, human; conditions: Homo sapiens; 72 h, MTT, Hep 2
# Outline: as §2
# MG63 (osteosarcoma) = experiment: as above; type: cell-based, human; conditions: Homo sapiens; 72 h, MTT, MG-63
# Outline: as §2
# [9] = system: PANC-1 (pancreatic cancer); experiment: as above; type: cell-based, human; conditions: Homo sapiens; 72 h, MTT, PANC-1
# Outline: as §2
# PC-3 (prostate cancer) = experiment: as above; type: cell-based, human; conditions: Homo sapiens; 72 h, MTT, PC-3
# Outline: as §2
# A549 (human lung cancer) = experiment: as above; type: cell-based; conditions: Homo sapiens; 72 h, MTT, A549
# Outline: as §2
# [10] = system: Becap37 (human breast cancer cell); experiment: as above; type: cell-based; conditions: Homo sapiens; 72 h, MTT, Becap-37
# Outline: as §2
# [11] = system: CNE (nasopharyngeal carcinoma cell); experiment: as above; type: cell-based; conditions: Homo sapiens
# Outline: as §2
# [12] = system: Hela (human cervical cancer cell); experiment: as above; type: cell-based; conditions: Homo sapiens; 72 h, MTT, Hela
# Outline: as §2
# [13] = system: Huh7 (human liver cancer cell); experiment: as above; type: cell-based; conditions: Homo sapiens; 72 h, MTT, Huh-7
# Outline: as §2
# [14] = system: MGC 803 (human gastric cancer cell); experiment: as above; type: cell-based; conditions: Homo sapiens
# Outline: as §2
# [15] = system: RKO (human colon adenocarcinoma cell); experiment: as above; type: cell-based; conditions: Homo sapiens; 72 h, MTT, RKO
# Outline: as §2
# [16] = system: SK-OV-3 (ovarian cancer cell); experiment: as above; type: cell-based; conditions: Homo sapiens
# Outline: as §2
# [17] = system: U87 MG (malignant glioma cell); experiment: as above; type: cell-based; conditions: Homo sapiens, U-87 MG
# Outline: as §2
smiles,measurement,setting,value
COc1ccc2cc1Oc1ccc(cc1)C[C@H]1c3cc(c(OC)cc3CCN1C)Oc1c(OC)c(OC)c(CN3CCCC(C)C3)c3c1[C@H](C2)N(C)CC3 (stereo partly shown) [BS-TE-346],IC50,[1],1.01 µg/mL
same,IC90,[1],2.3 µg/mL
same,IC50,[2],0.58 µg/mL
same,IC90,[2],3.79 µg/mL
same,anti-Jurkat activity increase over tetrandrine,[2]; compared with tetrandrine,~4 fold
same,IC50,[3],0.31 µg/mL
same,IC90,[3],2.05 µg/mL
same,IC50,[4],0.5 µg/mL
same,IC90,[4],2.68 µg/mL
same,IC50,[5],0.54 µg/mL
same,IC90,[5],1.5 µg/mL
same,IC50,[6],0.02 µg/mL
same,IC90,[6],0.06 µg/mL
same,IC50,[7],1.29 µg/mL
same,IC90,[7],7.23 µg/mL
same,IC50,[8],1.79 µg/mL
same,IC90,[8],6.83 µg/mL
same,IC50,MG63 (osteosarcoma),0.8 µg/mL
same,IC90,MG63 (osteosarcoma),1.5 µg/mL
same,IC50,[9],2.31 µg/mL
same,IC90,[9],8.26 µg/mL
same,IC50,PC-3 (prostate cancer),2.92 µg/mL
same,IC90,PC-3 (prostate cancer),4.9 µg/mL
same,IC50,A549 (human lung cancer),2.5 µg/mL
same,IC90,A549 (human lung cancer),8 µg/mL
same,IC50,[10],0.8 µg/mL
same,IC90,[10],2.3 µg/mL
same,IC50,[11],2.5 µg/mL
same,IC90,[11],5.4 µg/mL
same,IC50,[12],1.83 µg/mL
same,IC90,[12],5 µg/mL
same,IC50,[13],1.63 µg/mL
same,IC90,[13],2.49 µg/mL
same,IC50,[14],0.9 µg/mL
same,IC90,[14],4.98 µg/mL
same,IC50,[15],0.73 µg/mL
same,IC90,[15],1.9 µg/mL
same,IC50,[16],3.9 µg/mL
same,IC90,[16],> 16 µg/mL
same,IC50,[17],0.19 µg/mL
same,IC90,[17],0.57 µg/mL
COc1ccc2cc1Oc1ccc(cc1)C[C@H]1c3cc(c(OC)cc3CCN1C)Oc1c(OC)c(OC)c(CNCc3cccs3)c3c1[C@H](C2)N(C)CC3 [BS-TE-359],IC50,[1],1.25 µg/mL
same,IC90,[1],2.3 µg/mL
same,IC50,[2],0.65 µg/mL
same,IC90,[2],5 µg/mL
same,IC50,[3],0.36 µg/mL
same,IC90,[3],2.18 µg/mL
same,IC50,[4],0.42 µg/mL
same,IC90,[4],1.83 µg/mL
same,IC50,[5],0.4 µg/mL
same,IC90,[5],1 µg/mL
same,IC50,[6],0.05 µg/mL
same,IC90,[6],1.42 µg/mL
same,IC50,[7],1.61 µg/mL
same,IC90,[7],7.67 µg/mL
same,IC50,[8],4.6 µg/mL
same,IC90,[8],8.29 µg/mL
same,IC50,MG63 (osteosarcoma),1.1 µg/mL
same,IC90,MG63 (osteosarcoma),1.98 µg/mL
same,IC50,[9],2.44 µg/mL
same,IC90,[9],8.04 µg/mL
same,IC50,PC-3 (prostate cancer),3 µg/mL
same,IC90,PC-3 (prostate cancer),4.7 µg/mL
same,IC50,A549 (human lung cancer),3.3 µg/mL
same,IC90,A549 (human lung cancer),12.8 µg/mL
same,IC50,[10],1.1 µg/mL
same,IC90,[10],2 µg/mL
same,IC50,[11],1.57 µg/mL
same,IC90,[11],2.83 µg/mL
same,IC50,[12],1.09 µg/mL
same,IC90,[12],2.56 µg/mL
same,IC50,[13],1.19 µg/mL
same,IC90,[13],1.68 µg/mL
same,IC50,[14],0.88 µg/mL
same,IC90,[14],6 µg/mL
same,IC50,[15],0.58 µg/mL
same,IC90,[15],1.01 µg/mL
same,IC50,[16],2 µg/mL
same,IC90,[16],14.4 µg/mL
same,IC50,[17],0.33 µg/mL
same,IC90,[17],1.01 µg/mL
COc1ccc2cc1Oc1ccc(cc1)C[C@H]1c3cc(c(OC)cc3CCN1C)Oc1c(OC)c(OC)c(CN3CCCC(O)C3)c3c1[C@H](C2)N(C)CC3 (stereo partly shown) [BS-TE-321],IC50,[1],0.91 µg/mL
same,IC90,[1],1.78 µg/mL
same,IC50,[2],0.94 µg/mL
same,IC90,[2],5.75 µg/mL
same,IC50,[3],0.49 µg/mL
same,IC90,[3],3.02 µg/mL
same,IC50,[4],0.48 µg/mL
same,IC90,[4],2.55 µg/mL
same,IC50,[5],0.8 µg/mL
same,IC90,[5],1.9 µg/mL
same,IC50,[6],0.08 µg/mL
same,IC90,[6],3.63 µg/mL
same,IC50,[7],2.25 µg/mL
same,IC90,[7],19.1 µg/mL
same,IC50,[8],3.51 µg/mL
same,IC90,[8],9.8 µg/mL
same,IC50,MG63 (osteosarcoma),1.1 µg/mL
same,IC90,MG63 (osteosarcoma),3.2 µg/mL
same,IC50,[9],2.6 µg/mL
same,IC90,[9],9.14 µg/mL
same,IC50,PC-3 (prostate cancer),2.01 µg/mL
same,IC90,PC-3 (prostate cancer),3.84 µg/mL
same,IC50,A549 (human lung cancer),4.4 µg/mL
same,IC90,A549 (human lung cancer),16 µg/mL
same,IC50,[10],1.4 µg/mL
same,IC90,[10],4.5 µg/mL
same,IC50,[11],2.8 µg/mL
same,IC90,[11],6.6 µg/mL
same,IC50,[12],1.48 µg/mL
same,IC90,[12],4.31 µg/mL
same,IC50,[13],0.81 µg/mL
same,IC90,[13],1.24 µg/mL
same,IC50,[14],1.78 µg/mL
same,IC90,[14],6.73 µg/mL
same,IC50,[15],0.69 µg/mL
same,IC90,[15],1.71 µg/mL
same,IC50,[16],3.5 µg/mL
same,IC90,[16],> 16 µg/mL
same,IC50,[17],0.57 µg/mL
same,IC90,[17],2.51 µg/mL
